Measured values as given in patent US5597829A, “Lactone stable formulation of camptothecin and methods for uses thereof” (priority 1994, dated 1997).
Entries after “also recorded” stand apart in the source; their conditions may differ. Like-named read-outs stand apart in the source and are kept apart here.

Key:
[1] = Phase I pharmacokinetics: conversion of CPT-11 into HECPT; type: in vivo, human; conditions: per/mg basis, from mean peak plasma concentrations
[2] = cited from earlier work
[3] = system: xenografts of human tumors; conditions: nude mice; cited from earlier work
[4] = mice; cited from earlier work
[5] = cited from earlier work; remark: listed apart in the source
[6] = cited from earlier work; remark: listed apart in the source
[7] = cited from earlier work; remark: listed apart in the source
LD1210 leukemia = conditions: 10-100 mg/kg intraperitoneally; cited from earlier work
[8] = system: topoisomerase I in P388 cells; conditions: cited from earlier work
MOLT3 cells = conditions: cited from earlier work
P388 tumor = conditions: intermittent bolus (days 1, 5, and 9), i.p.; cited from earlier work
[9] = similar solutions; cited from earlier work
[10] = Masuda et al, refractory or relapsed small cell lung cancer, 100 mg/m^2 weekly
[11] = Negoro et al, small cell lung cancer, 100 mg/m^2 weekly, 41 pts
[12] = Shimada et al, colon cancer, 100 mg/m^2 /week or 150 mg/m^2 /Q 2 wks
[13] = Takeuchi et al, cervical cancer, 69 pts

CCc1c2c(nc3ccc(OC(=O)N4CCC(N5CCCCC5)CC4)cc13)-c1cc3c(c(=O)n1C2)COC(=O)[C@]3(O)CC [CPT-11, 7-Ethyl-10-[4-(1-piperidino)-1-piperidino]Carbonyloxy-Camptothecin]
administered CPT-11 converted into HECPT [1]: 1.5% to 9
Toxicity (* dose limiting) ([2]; Clavel et al, 90 min QDx3 Q21 days, 115 mg/m^2 /d (33-115), 37 pts): Neutropenia*; also recorded: diarrhea; also recorded: nausea; also recorded: vomiting; also recorded: alopecia
partial responses (PR) ([2]; Clavel et al, Breast, 37 pts): 1 PR
partial responses (PR) ([2]; Clavel et al, Mesothelioma, 37 pts): 1 PR
Toxicity (* dose limiting) ([2]; Culine et al, 90 min Q21 days, 150 mg/m^2 /wk (50-150), 59 pts): Neutropenia*; also recorded: diarrhea*; also recorded: vomiting; also recorded: alopecia; also recorded: fatigue; also recorded: stomatitis
partial responses (PR) ([2]; Culine et al, cervix, 59 pts): 1 PR
partial responses (PR) ([2]; Culine et al, esophagus, 59 pts): 1 PR
partial responses (PR) ([2]; Culine et al, ovarian, 59 pts): 1 PR
partial responses (PR) ([2]; Culine et al, renal, 59 pts): 1 PR
Toxicity (* dose limiting) ([2]; Negoro et al, 30 min infusion weekly, 100 mg/m^2 (50-150), 17 pts): Neutropenia* and Diarrhea* and N/V and alopecia and liver
partial responses (PR) ([2]; Negoro et al, NS CLC, 17 pts): 2 PRs
responses by tumor type ([2]; Ohe et al, 36 pts): None
Toxicity (* dose limiting) ([2]; Ohe et al, 120 hr CI Q3 wks, 40 mg/m^2 /d (5-40), 36 pts): Diarrhea*; also recorded: nausea; also recorded: vomiting; also recorded: thrombocytopenia; also recorded: anemia; also recorded: liver
major reported, dose-limiting toxicities ([2]; Phase I and Phase II trials): Neutropenia and diarrhea
partial responses (PR) ([2]; Rothenberg et al, Colon Ca, 32 pts): 2 PRs
Toxicity (* dose limiting) ([2]; Rothenberg et al, QWx4 Q42 days, 180 mg/m^2 /wk (50-180), 32 pts): Diarrhea*; also recorded: Neutropenia; also recorded: nausea; also recorded: vomiting; also recorded: alopecia
Toxicity (* dose limiting) ([2]; Rowinsky et al, 90 min infusion Q21 day, 240 mg/m^2 (100-345), 32 pts): Neutropenia* and vomiting and diarrhea and abd. and flushing
partial responses (PR) ([2]; Rowinsky et al, Cervix Ca, 32 pts): 1 PR
partial responses (PR) ([2]; Rowinsky et al, Colon Cancer, 32 pts): 1 PR
dependence of tumor sensitivity on ability to produce HECPT [3]: independent of their ability to produce HECPT
plasma concentration of HECPT after CPT-11 compared to after HECPT [4]: maintained longer after CPT-11 administration than after treatment with HECPT
partial responses ([5]; Fukuoka et al, untreated non small cell lung cancer, 100 mg/m^2): 23/72
Response Rate [5, 10]: 47%
partial responses [5, 10]: 7/15
Response Rate [5, 11]: 33.3%
complete responses [5, 11]: 2 CRs
partial responses [5, 11]: 7 PRs
N/V ([5]; Negoro et al, small cell lung cancer): 61.5%
Gastrointestinal toxicity ([5]; Ohno et al, 62 pts): 76%
Reported Toxicities ([5]; Ohno et al, 62 pts): Thrombocytopenia
Response Rate ([5]; Ohno et al, leukemia/lymphoma, 20 mg/m^2 bid x7): 25 % RR
partial response rate ([5]; Ohno et al, leukemia/lymphoma, 40 mg/m^2 Q0x5): 34 % PR
Response ([5]; Ohno et al, leukemia/lymphoma, 200 mg Q3): No resp.
N/V ([5]; Shimada et al, 17 pts): 35%
Response Rate [5, 12]: 46%
partial responses [5, 12]: 6/17
Response Rate (RR) [5, 13]: 23.6%
complete responses [5, 13]: SCR
partial responses [5, 13]: 8 PR
N/V ([5]; Takeuchi et al, cervical cancer): 51%
Alopecia ([5]; in vivo): 38.1%
Diarrhea ([5]; in vivo): 39.1%
alopecia ([5]; in vivo): 40.0%
pneumonitis ([5]; in vivo): 12.5
conversion of CPT-11 to HECPT ([6]; 5-day continuous intravenous infusion): saturable process
Fractional amount of lactone species, CpMax based ([7]; single dose I.V., 50 mg/m^2): 0.51
Fractional amount of lactone species, CpMax based ([7]; single dose I.V., 80 mg/m^2): 0.44
Fractional amount of lactone species, CpMax based ([7]; single dose I.V., 100 mg/m^2): 0.53
Fractional amount of lactone species, CpMax based ([7]; single dose I.V., 125 mg/m^2): 0.55
Fractional amount of lactone species, CpMax based ([7]; single dose I.V., 150 mg/m^2): 0.42
Fractional amount of lactone species, CpMax based ([7]; single dose I.V., 180 mg/m^2): 0.42
overall fractional concentration of the lactone species over dose range ([7]; single dose I.V.): fairly constant

CCc1c2c(nc3ccccc13)-c1cc3c(c(=O)n1C2)COC(=O)[C@]3(O)CC [ECPT, 7-ethyl camptothecin]
T/C (treated/control) ratios (LD1210 leukemia): inferior to that of CPT-11 administration under the same conditions

CCc1c2c(nc3ccc(O)cc13)-c1cc3c(c(=O)n1C2)COC(=O)[C@]3(O)CC [HECPT, 10-hydroxy 7-ethyl camptothecin]
T/C (treated/control) ratios (LD1210 leukemia): inferior to that of CPT-11 administration under the same conditions
greater inhibitory activity than CPT-11 against topoisomerase I [8]: 3600 fold
more potent than CPT-11 in generating single-strand DNA breaks (MOLT3 cells): approximately 1000 fold
anti-tumor activity compared to CPT-11 (P388 tumor): little anti-tumor activity compared to CPT-11
correlation of HECPT pharmacokinetics with dose or of CPT-11 pharmacokinetics with toxicity ([6]; human subjects): lack of correlation
overall fractional concentration of the lactone species over dose range ([7]; in vivo, iv): fairly constant

COc1cc([C@@H]2c3cc4c(cc3[C@@H](O[C@@H]3O[C@@H]5CO[C@@H](C)O[C@H]5[C@H](O)[C@H]3O)[C@H]3COC(=O)[C@H]23)OCO4)cc(OC)c1O [etoposide]
bioavailability following oral administration relative to intravenous [9]: substantially equivalent
